Patent US12187684B2, “Benzimidazole derivatives as modulators of retinoid-related orphan receptor gamma (RORγ) and pharmaceutical use thereof” (Jiangsu Hengrui Medicine Co., Ltd., priority 2018, dated 2025)

molecular target: T1, RORγ LBD-GST tagged (Homo sapiens, UniProt P51449); assay: LanthaScreen TR-FRET RORγ coactivator assay; assay type: biochemical; conditions: Fluorescein-D22 coactivator peptide, 1 hour room temperature
T1 construct: RORγ LBD-GST tagged (Cat No. RORC-114H, Creative Biomart); purchased Creative Biomart RORC-114H
T1 sequence (P51449 269-508 limits assumed): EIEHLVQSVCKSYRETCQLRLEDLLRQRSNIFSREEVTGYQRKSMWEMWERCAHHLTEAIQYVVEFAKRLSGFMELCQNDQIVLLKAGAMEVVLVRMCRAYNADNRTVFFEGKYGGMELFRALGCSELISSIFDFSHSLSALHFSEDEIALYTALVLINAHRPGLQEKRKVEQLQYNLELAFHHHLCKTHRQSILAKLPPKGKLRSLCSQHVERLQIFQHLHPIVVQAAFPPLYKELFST
Excerpt: LanthaScreen TR-FRET Retinoid-Related Orphan Receptor Gamma (RORγ) Coactivator Assay Materials and Reagents • 1. […] Fluorescein-D22 coactivator peptide (Cat No. PV4386, Invitrogen) • 3. LanthaScreen™ Tb anti-GST antibody (Cat No. PV3550, Invitrogen) • 4. TR-FRET coregulatory buffer D (Cat No, PV4420, Invitrogen) • 5. DTT (Cat No. P2325, Fisher) • 6. […] Tecan Infinite M1000 plate reader (Tecan) Experimental Procedure Prepare Complete TR-FRET Coregulator Buffer D by adding 1 M DTT to TR-FRET Coregulator Buffer D to the final concentration of 5 mM DTT. Make compound dilution in Complete TR-FRET Coregulator Buffer D. Highest dose is 3 μM, 7-folder dilution for total 7 doses. Add 10 μL to each well of a 384-well plate. For the negative and positive controls, add 10 μL of Complete TR-FRET Coregulator Buffer D. Prepare RORγ LBD using Complete TR-FRET Coregulator Buffer D. The final concentration of RORγ LBD is 25 ng/reaction. Add 5 μL RORγ LBD to all the wells of the 384-well assay plate except negative wells which adding 5 μL Complete TR-FRET Coregulator Buffer D. Prepare a solution containing 0.6 μM Fluorescein-D22 and 8 nM Tb anti-GST antibody using Complete TR-FRET Coregulator Buffer D. Add 5 μL to all wells of the 384-well assay plate. Briefly and gently mix the 384-well plate on a plate shaker and incubate at room temperature protected from light for 1 hour. The plate may be sealed with a cover to minimize evaporation. Read the plate at wavelengths of 520 nm and 495 nm on Tecan Infinite M1000. IC50 values were calculated using GraphPad Prism by plotting the logarithm of compounds concentration versus percent inhibition.

| Compound | IC50 [µM] |
| --- | --- |
| CCS(=O)(=O)c1ccc(C(NC(C)=O)c2nc3c(Cl)c(-c4ccccc4OC(F)(F)F)c(Cl)cc3[nH]2)cc1 (centres unmarked) [Example 44, N-((4,6-dichloro-5-(2-(trifluoromethoxy)phenyl)-1H-benzo[d]imidazol-2-yl)(4-(ethylsulfonyl)phenyl)methyl)acetamide] | 0.026 |
| CS(=O)(=O)c1ccc(Cc2nc3c(Cl)c(-c4ccccc4C(F)(F)F)c(Cl)cc3[nH]2)cc1 [Example 45, 4,6-dichloro-2-(4-(methylsulfonyl)benzyl)-5-(2-(trifluoromethyl)phenyl)-1H-benzo[d]imidazole] | 0.535 |
| CS(=O)(=O)c1ccc(Cc2nc3c(Cl)c(-c4ccccc4OC(F)F)c(Cl)cc3[nH]2)cc1 [Example 47, 4,6-dichloro-5-(2-(difluoromethoxy)phenyl)-2-(4-(methylsulfonyl)benzyl)-1H-benzo[d]imidazole] | 0.196 |
| CS(=O)(=O)c1ccc(C(CO)c2nc3c(Cl)c(-c4ccccc4OC(F)F)c(Cl)cc3[nH]2)cc1 (centres unmarked) [Example 48, 2-(4,6-dichloro-5-(2-(difluoromethoxy)phenyl)-1H-benzo[d]imidazol-2-yl)-2-(4-(methylsulfonyl)phenyl)ethanol] | 0.445 |
| CS(=O)(=O)c1ccc(C(O)c2nc3c(Cl)c(-c4ccccc4OC(F)F)c(Cl)cc3[nH]2)cc1 (centres unmarked) [Example 49, (4,6-dichloro-5-(2-(difluoromethoxy)phenyl)-1H-benzo[d]imidazol-2-yl)(4-(methylsulfonyl)phenyl)methanol] | 0.255 |
| CCCS(=O)(=O)c1ccc(Cc2nc3c(Cl)c(-c4ccccc4OC(F)(F)F)c(Cl)cc3[nH]2)cc1 [Example 50, 4,6-dichloro-2-(4-(propylsulfonyl)benzyl)-5-(2-(trifluoromethoxy)phenyl)-1H-benzo[d]imidazole] | 0.284 |
| CCCS(=O)(=O)c1ccc(C(CO)c2nc3c(Cl)c(-c4ccccc4OC(F)(F)F)c(Cl)cc3[nH]2)cc1 (centres unmarked) [Example 51, 2-(4,6-dichloro-5-(2-(trifluoromethoxy)phenyl)-1H-benzo[d]imidazol-2-yl)-2-(4-(propylsulfonyl)phenyl)ethanol] | 0.646 |
| CCCS(=O)(=O)c1ccc(C(O)c2nc3c(Cl)c(-c4ccccc4OC(F)(F)F)c(Cl)cc3[nH]2)cc1 (centres unmarked) [Example 52, (4,6-dichloro-5-(2-(trifluoromethoxy)phenyl)-1H-benzo[d]imidazol-2-yl)(4-(propylsulfonyl)phenyl)methanol] | 0.135 |
| COCCS(=O)(=O)c1ccc(Cc2nc3c(Cl)c(-c4ccccc4OC(F)(F)F)c(Cl)cc3[nH]2)cc1 [Example 53, 4,6-dichloro-2-(4-((2-methoxyethyl)sulfonyl)benzyl)-5-(2-(trifluoromethoxy)phenyl)-1H-benzo[d]imidazole] | 0.575 |
| COCCS(=O)(=O)c1ccc(C(CO)c2nc3c(Cl)c(-c4ccccc4OC(F)(F)F)c(Cl)cc3[nH]2)cc1 (centres unmarked) [Example 54, 2-(4,6-dichloro-5-(2-(trifluoromethoxy)phenyl)-1H-benzo[d]imidazol-2-yl)-2-(4-((2-methoxyethyl)sulfonyl)phenyl)ethanol] | 0.367 |
| COCCS(=O)(=O)c1ccc(C(O)c2nc3c(Cl)c(-c4ccccc4OC(F)(F)F)c(Cl)cc3[nH]2)cc1 (centres unmarked) [Example 55, (4,6-dichloro-5-(2-(trifluoromethoxy)phenyl)-1H-benzo[d]imidazol-2-yl)(4-((2-methoxyethyl)sulfonyl)phenyl)methanol] | 0.194 |
| CS(=O)(=O)c1ccc(Cc2nc3c(Cl)c(-c4ccccc4OC(F)(F)F)c(Cl)cc3[nH]2)cc1 [Example 56, 4,6-dichloro-2-(4-(methylsulfonyl)benzyl)-5-(2-(trifluoromethoxy)phenyl)-1H-benzo[d]imidazole] | 0.879 |
| CS(=O)(=O)c1ccc(C(CO)c2nc3c(Cl)c(-c4ccccc4OC(F)(F)F)c(Cl)cc3[nH]2)cc1 (centres unmarked) [Example 57, 2-(4,6-dichloro-5-(2-(trifluoromethoxy)phenyl)-1H-benzo[d]imidazol-2-yl)-2-(4-(methylsulfonyl)phenyl)ethanol] | 0.187 |
| CS(=O)(=O)c1ccc(C(O)c2nc3c(Cl)c(-c4ccccc4OC(F)(F)F)c(Cl)cc3[nH]2)cc1 (centres unmarked) [Example 58, (4,6-dichloro-5-(2-(trifluoromethoxy)phenyl)-1H-benzo[d]imidazol-2-yl)(4-(methylsulfonyl)phenyl)methanol] | 0.266 |
| O=S(=O)(CC(F)(F)F)c1ccc(Cc2nc3c(Cl)c(-c4ccccc4OC(F)(F)F)c(Cl)cc3[nH]2)cc1 [Example 59, 4,6-dichloro-2-(4-((2,2,2-trifluoroethyl)sulfonyl)benzyl)-5-(2-(trifluoromethoxy)phenyl)-1H-benzo[d]imidazole] | 0.433 |
| O=S(=O)(CC(F)(F)F)c1ccc(C(CO)c2nc3c(Cl)c(-c4ccccc4OC(F)(F)F)c(Cl)cc3[nH]2)cc1 (centres unmarked) [Example 60, 2-(4,6-dichloro-5-(2-(trifluoromethoxy)phenyl)-1H-benzo[d]imidazol-2-yl)-2-(4-((2,2,2-trifluoroethyl)sulfonyl)phenyl)ethanol] | 0.409 |
| O=S(=O)(CCF)c1ccc(Cc2nc3c(Cl)c(-c4ccccc4OC(F)(F)F)c(Cl)cc3[nH]2)cc1 [Example 61, 4,6-dichloro-2-(4-((2-fluoroethyl)sulfonyl)benzyl)-5-(2-(trifluoromethoxy)phenyl)-1H-benzo[d]imidazole] | 0.509 |
| O=S(=O)(CCF)c1ccc(C(CO)c2nc3c(Cl)c(-c4ccccc4OC(F)(F)F)c(Cl)cc3[nH]2)cc1 (centres unmarked) [Example 62, 2-(4,6-dichloro-5-(2-(trifluoromethoxy)phenyl)-1H-benzo[d]imidazol-2-yl)-2-(4-((2-fluoroethyl)sulfonyl)phenyl)ethanol] | 0.154 |
| O=S(=O)(CCF)c1ccc(Cc2nc3c(Cl)c(-c4ccccc4C(F)(F)F)c(Cl)cc3[nH]2)cc1 [Example 63, 4,6-dichloro-2-(4-((2-fluoroethyl)sulfonyl)benzyl)-5-(2-(trifluoromethyl)phenyl)-1H-benzo[d]imidazole] | 0.592 |
| O=S(=O)(CCF)c1ccc(C(CO)c2nc3c(Cl)c(-c4ccccc4C(F)(F)F)c(Cl)cc3[nH]2)cc1 (centres unmarked) [Example 64, 2-(4,6-dichloro-5-(2-(trifluoromethyl)phenyl)-1H-benzo[d]imidazol-2-yl)-2-(4-((2-fluoroethyl)sulfonyl)phenyl)ethanol] | 0.465 |
| O=S(=O)(c1ccc(Cc2nc3c(Cl)c(-c4ccccc4C(F)(F)F)c(Cl)cc3[nH]2)cc1)C(F)(F)F [Example 65, 4,6-dichloro-5-(2-(trifluoromethyl)phenyl)-2-(4-((trifluoromethyl)sulfonyl)benzyl)-1H-benzo[d]imidazole] | 0.015 |
| O=S(=O)(CC1CC1)c1ccc(C(O)c2nc3c(Cl)c(-c4ccccc4C(F)(F)F)c(Cl)cc3[nH]2)cc1 (centres unmarked) [Example 71, (4-((cyclopropylmethyl)sulfonyl)phenyl)(4,6-dichloro-5-(2-(trifluoromethyl)phenyl)-1H-benzo[d]imidazol-2-yl)methanol] | 0.004 |
| O=S(=O)(CC1CC1)c1ccc(C(CO)c2nc3c(Cl)c(-c4ccccc4F)c(Cl)cc3[nH]2)cc1 (centres unmarked) [Example 74, 2-(4-((cyclopropylmethyl)sulfonyl)phenyl)-2-(4,6-dichloro-5-(2-fluorophenyl)-1H-benzo[d]imidazol-2-yl)ethanol] | 0.187 |
